Data taken from the supplement of paper PMC11208160.

experiment: recombinant UMI read abundance after kanamycin selection (control-corrected) (log10(CPM+1)); higher = more efficient recombination; extreme values may be limits of the assay; sequences stand for … in AGTGCAGAGAAAATCGGCCAGTTTTCTCTGCCTGCAGTCCGCATGCCGTGGGACCCCTTGGGTTCTAACCTGTTGCCTAGATTTATGCAGCGGACTGCCTTTCTCCCAAAGTGATAAACCGG…AGGTTGGTTTCACT; site = the 11-nt donor
Procedure, shortened: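 Each donor and donor-binding-loop pair was tracked by a 12-nt UMI on a plasmid carrying a promoterless kanamycin gene. With a second plasmid supplying a fixed target and T7-inducible IS621 bridge recombinase, the pool was plated in Escherichia coli on IPTG (0.07 mM) plus kanamycin or unselected. Sequencing of recombinant UMIs across the donor–target junction gave counts expressed as log10(CPM+1) after replicate averaging and control-derived scaling.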
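Also: IS621 bridge recombinase in Escherichia coli cells against a fixed T5 target plasmid.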

“CCTAATACATGGACCGGTTTTCCCGGTAATCCGTATTTGGC (site CCTAATACTCC)” and “CCTAATACATGGACCGGTTTTCCCGGTAATCCGTATTTGGC (site CCTAATACTGA)” are within 0.2 log units of each other in “recombinant UMI read abundance (log10)” value: 0.00819 for the first, 0.0391 for the second.

“CCTAATACATGGACCGGTTTTCCCGGTAATCCGTATTTGGC (site CCTAATACTGC)” and “CCTAATACATGGACCGGTTTTCCCGGTAATCCGTATTTGGC (site CCTAATACTGG)” are the same in “recombinant UMI read abundance (log10)” value: 0 for the first, 0 for the second.

“CCTAATACATGGACCGGTTTTCCCGGTAATCCGTATTTGGC (site CCTAATACTGT)” and “CCTAATACATGGACCGGTTTTCCCGGTAATCCGTATTTGGC (site CCTAATACTTC)” are within 0.2 log units of each other in “recombinant UMI read abundance (log10)” value: 0 for the first, 0.00574 for the second.

“CCTAATACATGGACCGGTTTTCCCGGTAATCCGTATTTGGC (site CCTAATCCTGC)” and “CCTAATACATGGACCGGTTTTCCCGGTAATCCGTATTTGGC (site CCTAATGCTGC)” are within 0.2 log units of each other in “recombinant UMI read abundance (log10)” value: 0.00798 for the first, 0 for the second.

“CCTAATACATGGACCGGTTTTCCCGGTAATCCGTATTTGGC (site CCTAATTCTGC)” and “CCTAATACATGGACCGGTTTTCCCGGTAATCCGTATTTGGC (site CCTACTACTGC)” are within 0.2 log units of each other in “recombinant UMI read abundance (log10)” value: 0 for the first, 0.0125 for the second.

“CCTAATACATGGACCGGTTTTCCCGGTAATCCGTATTTGGC (site CCTAGTACTGC)” and “CCTAATACATGGACCGGTTTTCCCGGTAATCCGTATTTGGC (site CCTATTACTGC)” are the same in “recombinant UMI read abundance (log10)” value: 0 for the first, 0 for the second.

“CCTAATACATGGACCGGTTTTCCCGGTAATCCGTATTTGGC (site CCTCATACTGC)” and “CCTAATACATGGACCGGTTTTCCCGGTAATCCGTATTTGGC (site CCTGATACTGC)” are within 0.2 log units of each other in “recombinant UMI read abundance (log10)” value: 0 for the first, 0.00582 for the second.

“CCTAATACATGGACCGGTTTTCCCGGTAATCCGTATTTGGC (site CCTTATACTGC)” and “CCTAATACATGGACCGGTTTTCCCGGTAATCCGTATTTGGC (site CGTAATACTGC)” are the same in “recombinant UMI read abundance (log10)” value: 0 for the first, 0 for the second.

“CCTAATACATGGACCGGTTTTCCCGGTAATCCGTATTTGGC (site CTTAATACTGC)” and “CCTAATACATGGACCGGTTTTCCCGGTAATCCGTATTTGGC (site GCTAATACTGC)” are the same in “recombinant UMI read abundance (log10)” value: 0 for the first, 0 for the second.

“CCTAATACATGGACCGGTTTTCCCGGTAATCCGTATTTGGC (site TCTAATACTGC)” and “CCTAATTCATGGACCGGTTTTCCCGGTAATCCGTATTTGAT (site CCTAATTCTAT)” are the same in “recombinant UMI read abundance (log10)” value: 0 for the first, 0 for the second.

“CCTACAGCATGGACCGGTTTTCCCGGTAATCCGTATTTGAT (site CCTAAAGCTAT)” and “CCTACAGCATGGACCGGTTTTCCCGGTAATCCGTATTTGAT (site CCTACAGCTAT)” are within 0.2 log units of each other in “recombinant UMI read abundance (log10)” value: 0 for the first, 0.00631 for the second.

“CCTACAGCATGGACCGGTTTTCCCGGTAATCCGTATTTGAT (site CCTAGAGCTAT)” and “CCTACAGCATGGACCGGTTTTCCCGGTAATCCGTATTTGAT (site CCTATAGCTAT)” are within 0.2 log units of each other in “recombinant UMI read abundance (log10)” value: 0 for the first, 0.002 for the second.

“CCTAGAGCATGGACCGGTTTTCCCGGTAATCCGTATTTGAT (site CCTAAAGCTAT)” and “CCTAGAGCATGGACCGGTTTTCCCGGTAATCCGTATTTGAT (site CCTACAGCTAT)” are within 0.2 log units of each other in “recombinant UMI read abundance (log10)” value: 0 for the first, 0.00404 for the second.

“CCTAGAGCATGGACCGGTTTTCCCGGTAATCCGTATTTGAT (site CCTAGAGCTAT)” and “CCTAGAGCATGGACCGGTTTTCCCGGTAATCCGTATTTGAT (site CCTATAGCTAT)” are within 0.2 log units of each other in “recombinant UMI read abundance (log10)” value: 0.00624 for the first, 0 for the second.

First: CCTAGCACATGGACCGGTTTTCCCGGTAATCCGTATTTGGT (site CCTAGCACTAC)
Second: CCTAGGTCATGGACCGGTTTTCCCGGTAATCCGTATTTGAA (site CCTAGGTCTTT)
The “recombinant UMI read abundance (log10)” value of the first is lower: 0.00677 for the first, 0.213 for the second.

“CCTAGTACATGGACCGGTTTTCCCGGTAATCCGTATTTGGC (site CCTAATACTGC)” and “CCTAGTACATGGACCGGTTTTCCCGGTAATCCGTATTTGGC (site CCTACTACTGC)” are the same in “recombinant UMI read abundance (log10)” value: 0 for the first, 0 for the second.

“CCTAGTACATGGACCGGTTTTCCCGGTAATCCGTATTTGGC (site CCTAGTACTGC)” and “CCTAGTACATGGACCGGTTTTCCCGGTAATCCGTATTTGGC (site CCTATTACTGC)” are the same in “recombinant UMI read abundance (log10)” value: 0 for the first, 0 for the second.

“CCTAGTTCATGGACCGGTTTTCCCGGTAATCCGTATTTGAA (site CCTAGTTCTTT)” and “CCTATGTCATGGACCGGTTTTCCCGGTAATCCGTATTTGTC (site CCTATGTCTGA)” are the same in “recombinant UMI read abundance (log10)” value: 0 for the first, 0 for the second.

First: CCTCACTCATGGACCGGTTTTCCCGGTAATCCGTATTTGCA (site CCTCACTCTTG)
Second: CCTCATACATGGACCGGTTTTCCCGGTAATCCGTATTTGGC (site CCTAATACTGC)
The “recombinant UMI read abundance (log10)” value of the first is higher: 0.399 for the first, 0 for the second.

“CCTCATACATGGACCGGTTTTCCCGGTAATCCGTATTTGGC (site CCTCATACTGC)” and “CCTCATACATGGACCGGTTTTCCCGGTAATCCGTATTTGGC (site CCTGATACTGC)” are the same in “recombinant UMI read abundance (log10)” value: 0 for the first, 0 for the second.

“CCTCATACATGGACCGGTTTTCCCGGTAATCCGTATTTGGC (site CCTTATACTGC)” and “CCTCTCTCATGGACCGGTTTTCCCGGTAATCCGTATTTGTA (site CATCTCTCTTA)” are within 0.2 log units of each other in “recombinant UMI read abundance (log10)” value: 0 for the first, 0.00925 for the second.

Compared with “CCTCTCTCATGGACCGGTTTTCCCGGTAATCCGTATTTGTA (site CCTCTCTCTTA)”, “CCTCTCTCATGGACCGGTTTTCCCGGTAATCCGTATTTGTA (site CGTCTCTCTTA)” is lower in “recombinant UMI read abundance (log10)” value: 0.53 for the first, 0 for the second.

“CCTCTCTCATGGACCGGTTTTCCCGGTAATCCGTATTTGTA (site CTTCTCTCTTA)” and “CCTGACACATGGACCGGTTTTCCCGGTAATCCGTATTTGTC (site CCTGACACTGA)” are within 0.2 log units of each other in “recombinant UMI read abundance (log10)” value: 0.0036 for the first, 0 for the second.

“CCTGCAGCATGGACCGGTTTTCCCGGTAATCCGTATTTGTG (site CCTGCAGCTCA)” and “CCTGCCGCATGGACCGGTTTTCCCGGTAATCCGTATTTGCC (site CCTGCCGCTGG)” are within 0.2 log units of each other in “recombinant UMI read abundance (log10)” value: 0.0206 for the first, 0 for the second.

“CCTGGTCCATGGACCGGTTTTCCCGGTAATCCGTATTTGCA (site CCAGGTCCTTG)” and “CCTGGTCCATGGACCGGTTTTCCCGGTAATCCGTATTTGCA (site CCCGGTCCTTG)” are within 0.2 log units of each other in “recombinant UMI read abundance (log10)” value: 0 for the first, 0.00677 for the second.

“CCTGGTCCATGGACCGGTTTTCCCGGTAATCCGTATTTGCA (site CCGGGTCCTTG)” and “CCTGGTCCATGGACCGGTTTTCCCGGTAATCCGTATTTGCA (site CCTGGTCCTTG)” are the same in “recombinant UMI read abundance (log10)” value: 0 for the first, 0 for the second.

“CCTTAGGCATGGACCGGTTTTCCCGGTAATCCGTATTTGTT (site CCTTAGGCTAA)” and “CCTTATACATGGACCGGTTTTCCCGGTAATCCGTATTTGGC (site CCTAATACTGC)” are within 0.2 log units of each other in “recombinant UMI read abundance (log10)” value: 0.0132 for the first, 0 for the second.

“CCTTATACATGGACCGGTTTTCCCGGTAATCCGTATTTGGC (site CCTCATACTGC)” and “CCTTATACATGGACCGGTTTTCCCGGTAATCCGTATTTGGC (site CCTGATACTGC)” are within 0.2 log units of each other in “recombinant UMI read abundance (log10)” value: 0.021 for the first, 0 for the second.

“CCTTATACATGGACCGGTTTTCCCGGTAATCCGTATTTGGC (site CCTTATACTGC)” and “CCTTGAACATGGACCGGTTTTCCCGGTAATCCGTATTTGCT (site CCTTGAACTAG)” are the same in “recombinant UMI read abundance (log10)” value: 0 for the first, 0 for the second.

“CCTTGCCCATGGACCGGTTTTCCCGGTAATCCGTATTTGAT (site ACTTGCCCTAT)” and “CCTTGCCCATGGACCGGTTTTCCCGGTAATCCGTATTTGAT (site CCTTGCCCTAT)” are within 0.2 log units of each other in “recombinant UMI read abundance (log10)” value: 0.00442 for the first, 0.00286 for the second.

“CCTTGCCCATGGACCGGTTTTCCCGGTAATCCGTATTTGAT (site GCTTGCCCTAT)” and “CCTTGCCCATGGACCGGTTTTCCCGGTAATCCGTATTTGAT (site TCTTGCCCTAT)” are within 0.2 log units of each other in “recombinant UMI read abundance (log10)” value: 0.00408 for the first, 0.00903 for the second.

Going from “CGAACATCATGGACCGGTTTTCCCGGTAATCCGTATTTGGA (site CGAACATCTTC)” to “CGAACGTCATGGACCGGTTTTCCCGGTAATCCGTATTTGCG (site CGAACGTCTCG)”, the “recombinant UMI read abundance (log10)” value rises from 1.93 to 2.37.

Going from “CGAAGATCATGGACCGGTTTTCCCGGTAATCCGTATTTGCT (site CGAAGATCTAG)” to “CGAAGATCATGGACCGGTTTTCCCGGTAATCCGTATTTGCT (site CGATCATCTAG)”, the “recombinant UMI read abundance (log10)” value falls from 1.51 to 0.

First: CGAAGGACATGGACCGGTTTTCCCGGTAATCCGTATTTGGT (site CGAAGGACTAC)
Second: CGAAGTGCATGGACCGGTTTTCCCGGTAATCCGTATTTGCC (site CGAAGTGCTGG)
The “recombinant UMI read abundance (log10)” value of the first is higher: 1.65 for the first, 0.751 for the second.
